Measured values reported in patent publication US9062067B2, “Process for preparation of darunavir and darunavir ethanolate of fine particle size” (Lupin Limited, priority 2009, dated 2015).

How the values were obtained:
[1] = Particle size distribution (Malvern mastersizer); assay type: physicochemical; settings: after jet mill micronization, Example 4
Text: The particle size of the darunavir ethanolate obtained by the process of present invention can be determined by any method known in the art such as laser diffraction, sieve analysis, microscope observation, sedimentation etc. Malvern mastersizer is an instrument employed for particle size determination in the present invention.

Bulk and tapped density = assay type: physicochemical; settings: after jet mill micronization, Example 4

CC(C)CN(C[C@@H](O)[C@H](Cc1ccccc1)NC(=O)O[C@H]1CO[C@H]2OCC[C@H]21)S(=O)(=O)c1ccc(N)cc1 [darunavir ethanolate, Darunavir ethanolate]
Particle size distribution d0.1 [1]: 2 μm
Particle size distribution d0.5 [1]: 18 μm
Particle size distribution d0.9 [1]: 97 μm
Bulk density (Bulk and tapped density): 0.42 g/mL
Tapped density (Bulk and tapped density): 0.72 g/mL
